Experimental findings from PubChem BioAssay (NCI) are described below.

The structures appear in SMILES notation.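 Tested at 5 concentrations; 48 h exposure; 96-well plates; endpoints linearly interpolated, else capped at highest concentration. GI50 = concentration required for 50% inhibition of growth. The concentration for full growth arrest is given as TGI.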

Some test systems named below: CCRF-CEM leukemia; EKVX NSCLC; HCC-2998 colon; IGROV1 ovarian; OVCAR-3 ovarian; RPMI-8226 leukemia; SN12C renal; SNB-19 CNS; SNB-75 CNS; UACC-62 melanoma.
What all share (assay): inhibition of tumour cell growth, NCI panel, 48 h

In the case of `Cc1cc(Nc2ccc(OCc3ccccc3)cc2)nc2cc(O)ccc12`, the GI50 in the assay on CCRF-CEM leukemia is 3.01 µM; in the assay with EKVX NSCLC, 12.3 µM; in the assay with HCC-2998 colon it was 2.41 µM; in the assay on IGROV1 ovarian it was 10.6 µM; in the assay on OVCAR-3 ovarian, 8.79 µM; in the assay on RPMI-8226 leukemia it was 2.5 µM. Moreover, the GI50 was 5.75 µM with SN12C renal, 9.57 µM in the assay with SNB-19 CNS, 2.4 µM with SNB-75 CNS and 2.96 µM with UACC-62 melanoma. Also, the TGI in the assay with CCRF-CEM leukemia stood at 20.7 µM; with EKVX NSCLC it was 27.2 µM; with HCC-2998 colon it was 5.18 µM; with IGROV1 ovarian it was 26.3 µM; in the assay on OVCAR-3 ovarian, 22.5 µM; in the assay with RPMI-8226 leukemia, 8.33 µM. Also, the TGI was 20.3 µM with SN12C renal, 23.2 µM with SNB-19 CNS, 11.2 µM in the assay on SNB-75 CNS and 10.7 µM in the assay on UACC-62 melanoma.
Turning to `CCCCCCCC/C=C/CCCCCCCC1=NC(C)(C)CN1CC(C)O` (centres undefined), the GI50 in the assay on CCRF-CEM leukemia is 2.24 µM; with EKVX NSCLC, 4.84 µM; in the assay with HCC-2998 colon, 4.68 µM; in the assay on IGROV1 ovarian it was 1.45 µM; in the assay on OVCAR-3 ovarian, 5.37 µM; in the assay with RPMI-8226 leukemia it was 2.28 µM. Besides, the GI50 in the assay with SN12C renal is 3.3 µM; in the assay with SNB-19 CNS it was 5.54 µM; in the assay on SNB-75 CNS, 1.81 µM; in the assay with UACC-62 melanoma it was 1.66 µM. Also, the TGI worked out at 5.97 µM in the assay with CCRF-CEM leukemia; 18.2 µM in the assay on EKVX NSCLC; 9.45 µM with HCC-2998 colon; 2.84 µM in the assay on IGROV1 ovarian; 9.96 µM in the assay on OVCAR-3 ovarian; 5.91 µM with RPMI-8226 leukemia. Besides, the TGI in the assay with SN12C renal came out at 12.3 µM; in the assay on SNB-19 CNS it was 17.7 µM; with SNB-75 CNS, 4.23 µM; with UACC-62 melanoma it was 3.13 µM.
Regarding `CC1=Nc2ccccc2NC(c2ccoc2)C1` (centres undefined), the TGI with CCRF-CEM leukemia, in the assay with EKVX NSCLC, in the assay with HCC-2998 colon, in the assay on IGROV1 ovarian, with OVCAR-3 ovarian and with RPMI-8226 leukemia was greater than 100 µM throughout. Moreover, the TGI with SN12C renal, in the assay on SNB-19 CNS, in the assay on SNB-75 CNS and in the assay with UACC-62 melanoma was greater than 100 µM in each case.
Take `O=C1CC(c2c(-c3ccccc3)[nH]c3ccccc23)C(=O)N1` (centres undefined): the TGI in the assay with CCRF-CEM leukemia, with EKVX NSCLC, with HCC-2998 colon, in the assay with IGROV1 ovarian, with OVCAR-3 ovarian and in the assay with RPMI-8226 leukemia was greater than 100 µM throughout. Further, the TGI in the assay with SNB-75 CNS and in the assay on UACC-62 melanoma was greater than 100 µM in each case.
With `O=C1CC[C@H](N2C(=O)c3cccc4c(Cc5ccc(CN6CCOCC6)cc5)ccc2c34)C(=O)N1`, the GI50 with CCRF-CEM leukemia was 55.9 µM; in the assay on EKVX NSCLC, 17.9 µM; with HCC-2998 colon it was greater than 100 µM; with IGROV1 ovarian it was greater than 100 µM; in the assay on OVCAR-3 ovarian it was 65.6 µM; in the assay with RPMI-8226 leukemia, 9.18 µM. Further, the GI50 was 63.4 µM in the assay on SN12C renal, greater than 100 µM in the assay with SNB-19 CNS and 2.56 µM in the assay on SNB-75 CNS. In addition, the TGI in the assay on CCRF-CEM leukemia, in the assay on EKVX NSCLC, in the assay with HCC-2998 colon, in the assay with IGROV1 ovarian, in the assay on OVCAR-3 ovarian and in the assay with RPMI-8226 leukemia was greater than 100 µM in each case. Further, the TGI in the assay with SN12C renal, with SNB-19 CNS and with SNB-75 CNS was greater than 100 µM throughout.
For `COc1cccc2ccc(C(=O)c3ccccc3)nc12`, the TGI with CCRF-CEM leukemia, in the assay with EKVX NSCLC, in the assay on HCC-2998 colon, in the assay with IGROV1 ovarian, with OVCAR-3 ovarian and in the assay on RPMI-8226 leukemia was greater than 100 µM in each case. Moreover, the TGI in the assay on SN12C renal, with SNB-75 CNS and with UACC-62 melanoma was greater than 100 µM each time.
Take `CN1C(=O)CCC2[C@@H]3CC=C4C[C@@H](O)CC[C@]4(C)C3CC[C@@]21C` (some centres undefined): the TGI in the assay with CCRF-CEM leukemia, with EKVX NSCLC, with HCC-2998 colon, in the assay on IGROV1 ovarian, with OVCAR-3 ovarian and in the assay on RPMI-8226 leukemia was greater than 100 µM each time. The TGI in the assay on SNB-75 CNS and in the assay with UACC-62 melanoma was greater than 100 µM in each case.
Regarding `O=[N+]([O-])c1ccc(C2CC(c3ccccc3Cl)=Nc3ccccc3S2)cc1` (centres undefined), the TGI came out at 6.77 µM in the assay on CCRF-CEM leukemia; 31 µM in the assay on EKVX NSCLC; 54.2 µM in the assay with HCC-2998 colon; 29.6 µM in the assay with IGROV1 ovarian; 34.2 µM with OVCAR-3 ovarian; 5.14 µM with RPMI-8226 leukemia. For the same compound, the TGI in the assay with SN12C renal was determined as 17.4 µM; with SNB-75 CNS, 44.1 µM; with UACC-62 melanoma, 16.1 µM.
`Nc1cc(F)ccc1CC(=O)O`: the TGI in the assay with CCRF-CEM leukemia, in the assay with EKVX NSCLC, in the assay with HCC-2998 colon, in the assay with IGROV1 ovarian, in the assay on RPMI-8226 leukemia and in the assay with SN12C renal was greater than 100 µM each time. Moreover, the TGI in the assay with SNB-19 CNS, with SNB-75 CNS and in the assay with UACC-62 melanoma was greater than 100 µM each time.
As to `Cc1cc(=O)[nH]c(N/N=C/c2cc(Br)ccc2O)n1`, the GI50 is 0.441 µM in the assay with CCRF-CEM leukemia; 1.82 µM in the assay on EKVX NSCLC; 1.85 µM with HCC-2998 colon; 0.257 µM in the assay with IGROV1 ovarian; 0.34 µM in the assay with OVCAR-3 ovarian; 0.843 µM with RPMI-8226 leukemia. The GI50 in the assay on SN12C renal is 0.809 µM; in the assay on SNB-19 CNS, 3.56 µM; with SNB-75 CNS it was 3.33 µM. Further, the TGI with CCRF-CEM leukemia was greater than 100 µM; in the assay on EKVX NSCLC, 7.67 µM; in the assay with HCC-2998 colon, greater than 100 µM; in the assay with IGROV1 ovarian, 0.706 µM; with OVCAR-3 ovarian, 38.6 µM; with RPMI-8226 leukemia it was greater than 100 µM. For the same compound, the TGI in the assay on SN12C renal, with SNB-19 CNS and with SNB-75 CNS was greater than 100 µM each time.
